Common to all, as to assay: DTP human tumour cell line panel, 48 h
Test [1] relates to HOP-62 NSCLC.
Test [2] relates to UO-31 renal.
For test [3], the system named is COLO 205 colon.
The subject of test [4] is BT-549 breast.
Test [5] has as its system SF-539 CNS.
The subject of test [6] is 786-0 renal.
Test [7] deals with HCT-15 colon.
Test [8] has as its system HT29 colon.
Test [9] relates to MCF7 breast.

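How tested: cells in 96-well plates exposed to compound for 48 hours at five concentrations. GI50 marks 50% less growth. TGI is the concentration that stops growth completely.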

`S=C(/N=c1\sc(Nc2ccc(Cl)cc2)nc2sc3c(c12)CCN(N1CCc2c(sc4nc(Nc5ccc(Cl)cc5)s/c(=N\C(=S)Nc5ccc(Cl)cc5)c24)C1)C3)Nc1ccc(Cl)cc1`: the TGI in test [1] was above 100 µM; in [2], above 100 µM; in test [3] it was above 100 µM; in test [4], above 100 µM; in [5] it was 35.6 µM; in test [6] it was 31.9 µM. Moreover, the TGI in [7] is above 100 µM; in [8] it was 36.1 µM; in test [9], above 100 µM.

Take `COc1ccc(S(=O)(=O)N2C(=O)CCC2C(=O)NN)cc1` (stereo not given): the total growth inhibition concentration (TGI) in test [1], in test [2], in test [3], in [4], in test [5] and in test [6] was above 100 µM throughout. Further, the TGI in test [7], in test [8] and in [9] was above 100 µM in each case.

Consider `Cc1cc2c([N+](=O)[O-])cc3c(c2o1)C(=O)C=CC3=O`, for which the TGI in test [1] is 34.1 µM; in test [2], 3.62 µM; in test [3] it was 4.88 µM; in [4], 30.4 µM; in test [5], 31.3 µM; in [6], 3.59 µM. In addition, the TGI in test [7] was 37.1 µM; in test [8] it was 4.67 µM; in test [9] it was 11.2 µM.

As for `COC(C)(C)[C@@H](O)[C@H]1C[C@H](C)[C@@]2(CC[C@]3(C)[C@@H]2CC[C@@H]2[C@@]4(C)CC[C@@H](OC(C)=O)C(C)(C)[C@@H]4C[C@@H](OC4OC(COC(C)=O)C(O)C(O)C4O)[C@]23C)O1` (stereo not given in full), the TGI in [1] stood at 25 µM; in [2], 15.5 µM; in test [3], 6.18 µM; in test [4] it was 15.2 µM; in test [5], 22.1 µM; in [6] it was 18.7 µM. Besides, the values for the total growth inhibition concentration (TGI) in test [7], in [8] and in test [9] were 5.75 µM, 4.07 µM and 8.92 µM, respectively.

With `NCCCN1CCN(CCCNc2ccc3nnn4c5ccccc5c(=O)c2c34)CC1`, the TGI was above 100 µM in test [1]; 90.7 µM in test [2]; 19.4 µM in test [3]; 22.6 µM in test [4]; 36.2 µM in test [5]; 33.1 µM in test [6]. Moreover, the TGI was above 100 µM in test [7], 50.3 µM in [8] and 74.7 µM in test [9].

Take `COc1cc2cc(Oc3ccc(NC(=O)c4cc(C(F)(F)F)cc(C(F)(F)F)c4)cc3)c(C)nc2cc1OC`: the GI50 is above 50 µM in [1]; 2.6 µM in [2]; 3.05 µM in test [3]; 3.02 µM in [4]; above 50 µM in [5]; 2.75 µM in test [7]. In addition, the GI50 in test [8] is above 50 µM; in test [9] it was 1.91 µM. Besides, the TGI in test [1], in [2], in test [3], in [4], in test [5] and in test [7] was above 50 µM each time. Further, the TGI in test [8] and in [9] was above 50 µM in each case.

Consider `CC(C)=CCC/C(C)=C/COC(C)(C)C1=CCC(C)CC1` (stereo not given) (tested in a mixture with another compound), for which the TGI is above 100 µM in [1]; above 100 µM in test [2]; above 100 µM in test [3]; above 100 µM in test [4]; 29.3 µM in test [5]; above 100 µM in [6]. Moreover, the TGI in [7], in test [8] and in test [9] was above 100 µM throughout.

On to `Cc1cn(-c2cc(C(=O)Nc3cccc(-n4ccc5c(NC(=O)c6ccccc6)nccc54)c3)cc(C(F)(F)F)c2)cn1`, for which the GI50 in test [1] was 0.628 µM; in [2], 1.1 µM; in test [3], 0.525 µM; in [4] it was 0.72 µM; in test [5], 0.332 µM; in test [7], 0.29 µM. The GI50 was 0.29 µM in test [8] and 0.361 µM in test [9]. For the same molecule, the TGI in [1] amounted to 15.3 µM; in test [2], 14.9 µM; in test [3], 1.71 µM; in test [4], 10 µM; in [5], 1.51 µM; in test [7] it was 4.71 µM. Also, the values for the TGI in test [8] and in test [9] were 1.04 µM and 2.39 µM, respectively.

For `CC1(C)C2CC(=O)C1(C)C(O)C2Br` (stereo not given), the TGI in test [1], in test [2], in test [4], in [5], in [6] and in [7] was above 100 µM each time. The TGI in test [8] and in [9] was above 100 µM in each case.

Consider `C(/C=C(\Nc1ccccc1)C12CC3CC(CC(C3)C1)C2)=Nc1ccccc1`, for which the TGI came out at 45.7 µM in test [1]; 29.3 µM in [2]; 32.6 µM in test [3]; 31.6 µM in test [4]; 29.3 µM in test [6]; 28 µM in test [7]. Also, the TGI stood at 27.6 µM in test [8] and 59.4 µM in [9].

Consider `NC(CC1=CS(=O)(=O)c2ccc(Cl)cc21)C(=O)O` (stereo not given), for which the TGI in test [1], in test [3], in test [4], in [5], in test [6] and in test [7] was above 100 µM each time. For the same molecule, the TGI in test [8] and in test [9] was above 100 µM throughout.

As for `C[C@]12CC[C@@H]3c4ccc(O)cc4CC[C@H]3[C@@H]1C/C(=C\c1ccncc1)[C@@H]2O`, the TGI in test [1] was 44.5 µM; in [2], 52.9 µM; in [3], 19.8 µM; in test [4], 14.2 µM; in test [6] it was 80.9 µM; in [7], 33.3 µM. Further, the values for the TGI in test [8] and in [9] were above 100 µM and 30.2 µM, respectively.

As to `Oc1[nH]c2ccc(Br)cc2c1N=NC(=S)Nc1ccc(F)cc1`, the TGI worked out at 60.5 µM in test [1]; 22.4 µM in test [3]; 2.7 µM in [4]; 38.8 µM in test [5]; 22.4 µM in [6]; 11.8 µM in test [7]. Moreover, the TGI in [8] turned out to be 28 µM; in [9] it was 24.7 µM.

Take `O=C1CC(C(O)(C(F)(F)F)C(F)(F)Cl)CCC1C(O)(C(F)(F)F)C(F)(F)Cl` (stereo not given): the TGI in test [1], in test [3], in [4], in test [5], in test [6] and in test [7] was above 10 µM each time. Besides, the TGI in test [8] and in test [9] was above 10 µM throughout.

Turning to `C(=Nc1ccc(-c2nc3ccccc3o2)cc1)c1ccco1`, the TGI in [2], in test [3], in test [4], in test [5], in [6] and in test [7] was above 100 µM each time. Moreover, the TGI in test [8] and in test [9] was above 100 µM throughout.

Regarding `O=C(NCCCN(CCCCN(CCCNC(=O)C(F)(F)F)Cc1ccc2ccccc2c1)Cc1ccc2ccccc2c1)C(F)(F)F`, the total growth inhibition concentration (TGI) in [1], in [2], in test [4], in test [5], in test [6] and in test [7] was above 100 µM throughout. For the same molecule, the TGI stood at 2.57 µM in [8] and 4.54 µM in [9].

In the case of `Cc1c(N2C(=O)C(Cl)C2c2ccc(Cl)cc2)c(=O)n(-c2ccccc2)n1C` (stereo not given), the TGI in test [1], in test [2], in test [3], in test [4], in test [5] and in test [6] was above 100 µM throughout. In addition, the TGI in test [8] and in test [9] was above 100 µM throughout.

For the molecule `CCCCNC(=S)N/N=C/c1cccc(C)n1`, the TGI in test [1] was 55.2 µM; in [2], 78.5 µM; in [3], above 100 µM; in test [4], above 100 µM; in [5], 96.8 µM; in test [6] it was above 100 µM. Besides, the TGI in [7] and in test [9] was above 100 µM in each case.

As for `CSc1c(C#N)c(N)n(-c2ccc(C)cc2)c(=O)c1C#N`, the TGI in [2], in test [3], in test [4], in test [5], in test [6] and in [7] was above 100 µM in each case. Also, the TGI in test [8] and in [9] was above 100 µM each time.

Take `COc1ccc(-c2c3c([nH]c(=S)c2C#N)CC(C)(C)CC3=O)cc1`: the TGI in test [1], in test [2], in test [4], in test [5], in test [6] and in test [7] was above 100 µM throughout. For the same molecule, the TGI in test [8] and in test [9] was above 100 µM throughout.

Regarding `O=c1ccn(C2OC(CO)C(P(=O)(O)O)C2O)c(=O)[nH]1` (stereo not given), the TGI in [1], in test [2], in test [4], in [5], in [6] and in test [7] was above 100 µM in each case. Also, the TGI in [8] and in test [9] was above 100 µM throughout.

(Values after PubChem BioAssay (NCI).)
